The source of these data is ChEMBL document CHEMBL5465560, “Selectivity Literature for EUbOPEN Chemogenomic Library” (2024).

Experiment [1] has as its target T1, Serine/threonine-protein kinase Sgk2 (Homo sapiens) (UniProt Q9HBY8).
T1 sequence (whole entry): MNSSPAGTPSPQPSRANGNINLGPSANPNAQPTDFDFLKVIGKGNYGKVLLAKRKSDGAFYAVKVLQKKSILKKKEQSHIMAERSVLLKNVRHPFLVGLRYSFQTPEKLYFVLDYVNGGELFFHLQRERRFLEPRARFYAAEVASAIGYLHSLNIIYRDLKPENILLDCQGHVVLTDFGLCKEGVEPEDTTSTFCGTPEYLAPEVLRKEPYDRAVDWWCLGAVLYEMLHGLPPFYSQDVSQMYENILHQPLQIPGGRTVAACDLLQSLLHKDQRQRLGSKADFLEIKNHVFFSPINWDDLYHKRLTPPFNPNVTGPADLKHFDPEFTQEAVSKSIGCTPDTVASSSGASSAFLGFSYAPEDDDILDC
The experiment is described as follows: Selectivity interaction (SelectScreen profiling (Invitrogen)) EUB0000607a SGK2. The settings on record: at 2 µM.

The target of experiment [2] is T2, Mitogen-activated protein kinase kinase kinase kinase 3 (Homo sapiens) (UniProt Q8IVH8).
T2 sequence (whole entry): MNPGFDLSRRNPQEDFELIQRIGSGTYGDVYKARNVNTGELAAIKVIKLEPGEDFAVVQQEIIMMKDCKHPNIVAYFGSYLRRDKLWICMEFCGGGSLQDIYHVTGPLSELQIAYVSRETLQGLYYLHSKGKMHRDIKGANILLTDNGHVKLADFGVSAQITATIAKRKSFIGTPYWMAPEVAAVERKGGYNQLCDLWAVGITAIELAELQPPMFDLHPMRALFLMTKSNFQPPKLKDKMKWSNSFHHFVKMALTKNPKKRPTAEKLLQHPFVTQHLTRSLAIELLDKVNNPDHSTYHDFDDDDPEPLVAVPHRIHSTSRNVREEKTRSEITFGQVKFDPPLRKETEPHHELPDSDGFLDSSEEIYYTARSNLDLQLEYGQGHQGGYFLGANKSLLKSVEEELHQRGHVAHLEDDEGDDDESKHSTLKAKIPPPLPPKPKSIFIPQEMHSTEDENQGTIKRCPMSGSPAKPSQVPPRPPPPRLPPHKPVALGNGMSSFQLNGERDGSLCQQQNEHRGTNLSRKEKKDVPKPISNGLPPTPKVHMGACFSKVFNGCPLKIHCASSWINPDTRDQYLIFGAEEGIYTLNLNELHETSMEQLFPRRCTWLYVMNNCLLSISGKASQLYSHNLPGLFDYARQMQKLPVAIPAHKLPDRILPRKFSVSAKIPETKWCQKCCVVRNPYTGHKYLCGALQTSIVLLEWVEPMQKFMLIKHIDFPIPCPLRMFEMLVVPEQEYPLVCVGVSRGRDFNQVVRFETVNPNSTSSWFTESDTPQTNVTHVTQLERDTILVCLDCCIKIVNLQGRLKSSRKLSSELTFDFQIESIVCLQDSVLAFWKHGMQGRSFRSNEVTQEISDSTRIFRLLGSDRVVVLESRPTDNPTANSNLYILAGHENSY
In words: Selectivity interaction (KinomeScan (DiscoverX)) EUB0000655a MAP4K3. To be noted: at 10 µM.

Experiment [3] has as its target T3, Dual specificity mitogen-activated protein kinase kinase 4 (Homo sapiens) (UniProt P45985).
T3 sequence (whole entry): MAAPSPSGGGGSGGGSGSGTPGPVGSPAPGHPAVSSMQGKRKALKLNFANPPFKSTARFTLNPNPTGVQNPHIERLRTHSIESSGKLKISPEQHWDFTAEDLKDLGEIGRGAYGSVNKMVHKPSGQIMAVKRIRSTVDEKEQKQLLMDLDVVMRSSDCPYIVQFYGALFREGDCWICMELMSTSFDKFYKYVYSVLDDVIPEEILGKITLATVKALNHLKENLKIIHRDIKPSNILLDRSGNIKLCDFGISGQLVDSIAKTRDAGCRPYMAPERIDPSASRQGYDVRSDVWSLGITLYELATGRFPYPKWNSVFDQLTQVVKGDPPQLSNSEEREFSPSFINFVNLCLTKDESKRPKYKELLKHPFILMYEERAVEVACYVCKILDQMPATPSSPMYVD
The experiment is described as follows: Selectivity interaction (ActivX KiNativ screen (ex vivo kinase selectivity in human PBMCs)) EUB0001619a MAP2K4. It counts as cell-based. To be noted: PBMC, at 1 µM.

In experiment [4] the target is T4, Serine/threonine-protein kinase D1 (Homo sapiens) (UniProt Q15139).
T4 sequence (whole entry): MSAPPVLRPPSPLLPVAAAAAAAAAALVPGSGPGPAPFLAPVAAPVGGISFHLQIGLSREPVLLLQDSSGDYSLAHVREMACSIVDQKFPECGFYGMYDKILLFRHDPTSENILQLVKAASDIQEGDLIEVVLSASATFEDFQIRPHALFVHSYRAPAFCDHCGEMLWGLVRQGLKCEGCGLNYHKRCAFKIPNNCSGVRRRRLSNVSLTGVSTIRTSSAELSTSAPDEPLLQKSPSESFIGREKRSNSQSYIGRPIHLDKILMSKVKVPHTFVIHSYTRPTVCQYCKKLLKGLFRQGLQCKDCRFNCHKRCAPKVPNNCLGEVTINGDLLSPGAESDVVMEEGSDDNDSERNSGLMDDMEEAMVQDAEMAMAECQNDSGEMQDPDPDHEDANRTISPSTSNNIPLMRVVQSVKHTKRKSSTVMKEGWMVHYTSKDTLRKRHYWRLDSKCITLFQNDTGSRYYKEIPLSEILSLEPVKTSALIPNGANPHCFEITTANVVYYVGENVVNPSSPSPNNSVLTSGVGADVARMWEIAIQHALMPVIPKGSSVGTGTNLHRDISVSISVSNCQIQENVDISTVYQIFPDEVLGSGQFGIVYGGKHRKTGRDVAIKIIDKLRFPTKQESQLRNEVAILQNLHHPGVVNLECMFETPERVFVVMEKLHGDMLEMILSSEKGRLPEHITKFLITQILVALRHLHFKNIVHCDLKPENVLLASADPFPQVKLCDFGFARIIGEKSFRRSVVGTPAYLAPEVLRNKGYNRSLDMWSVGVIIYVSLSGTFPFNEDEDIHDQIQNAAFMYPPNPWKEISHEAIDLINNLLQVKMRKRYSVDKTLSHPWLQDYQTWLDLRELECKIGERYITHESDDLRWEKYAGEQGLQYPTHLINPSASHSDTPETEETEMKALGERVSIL
The settings on record: at 10 µM.

For experiment [5], the target named is Tyrosine-protein kinase Lck (Homo sapiens, UniProt P06239). The experiment is described as follows: Selectivity interaction (KinomeScan (DiscoverX)) EUB0000695a LCK. The settings on record: at 100 nM.
Tyrosine-protein kinase Lck, sequence (P06239 2-509 limits assumed): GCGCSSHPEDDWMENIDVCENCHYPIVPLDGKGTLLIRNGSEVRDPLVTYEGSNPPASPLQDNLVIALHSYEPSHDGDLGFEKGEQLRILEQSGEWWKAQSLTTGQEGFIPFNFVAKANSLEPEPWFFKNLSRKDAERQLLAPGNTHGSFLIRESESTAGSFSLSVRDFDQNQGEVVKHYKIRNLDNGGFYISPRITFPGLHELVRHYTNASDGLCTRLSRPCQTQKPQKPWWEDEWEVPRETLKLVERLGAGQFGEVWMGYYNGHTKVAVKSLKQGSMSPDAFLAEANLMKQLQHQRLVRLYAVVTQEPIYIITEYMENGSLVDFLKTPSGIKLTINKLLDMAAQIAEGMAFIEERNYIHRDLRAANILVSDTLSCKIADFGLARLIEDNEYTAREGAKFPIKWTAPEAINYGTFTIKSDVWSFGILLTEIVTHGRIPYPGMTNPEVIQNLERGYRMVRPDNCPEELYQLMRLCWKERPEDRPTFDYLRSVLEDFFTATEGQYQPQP
The target in experiment [6] is Glucocorticoid receptor (Homo sapiens) (UniProt P04150). In words: Selectivity interaction (Eurofins CEREP Diversity Profile (receptors and ion channels)) EUB0000279b NR3C1. The settings on record: at 10 µM.
Glucocorticoid receptor (Homo sapiens), sequence (P04150 whole entry): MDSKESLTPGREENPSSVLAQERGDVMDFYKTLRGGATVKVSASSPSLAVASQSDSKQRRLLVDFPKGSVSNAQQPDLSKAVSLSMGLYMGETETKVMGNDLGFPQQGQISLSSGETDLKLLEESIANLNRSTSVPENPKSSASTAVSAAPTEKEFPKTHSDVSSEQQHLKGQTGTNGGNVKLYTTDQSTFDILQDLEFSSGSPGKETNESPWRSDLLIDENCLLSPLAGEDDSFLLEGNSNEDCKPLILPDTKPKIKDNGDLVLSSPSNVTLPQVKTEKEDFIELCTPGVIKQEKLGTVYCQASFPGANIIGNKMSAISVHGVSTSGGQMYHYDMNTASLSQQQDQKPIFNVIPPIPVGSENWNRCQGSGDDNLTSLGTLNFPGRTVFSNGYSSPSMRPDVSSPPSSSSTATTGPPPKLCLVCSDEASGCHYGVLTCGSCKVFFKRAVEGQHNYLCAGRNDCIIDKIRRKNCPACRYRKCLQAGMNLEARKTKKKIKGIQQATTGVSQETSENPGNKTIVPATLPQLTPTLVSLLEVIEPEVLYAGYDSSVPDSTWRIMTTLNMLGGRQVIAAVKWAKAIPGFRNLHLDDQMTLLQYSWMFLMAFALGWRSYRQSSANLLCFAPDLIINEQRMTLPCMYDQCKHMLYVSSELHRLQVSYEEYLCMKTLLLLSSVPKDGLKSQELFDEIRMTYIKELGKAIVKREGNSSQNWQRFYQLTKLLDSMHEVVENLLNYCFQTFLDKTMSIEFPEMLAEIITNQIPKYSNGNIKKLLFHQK
The target in experiment [7] is Calcium/calmodulin-dependent protein kinase type II subunit gamma (Homo sapiens) (UniProt Q13555). The experiment is described as follows: Selectivity interaction (KinomeScan (DiscoverX)) EUB0000092b CAMK2G. The settings on record: at 10 µM.
Calcium/calmodulin-dependent protein kinase type II subunit gamma (Homo sapiens), sequence (Q13555 whole entry): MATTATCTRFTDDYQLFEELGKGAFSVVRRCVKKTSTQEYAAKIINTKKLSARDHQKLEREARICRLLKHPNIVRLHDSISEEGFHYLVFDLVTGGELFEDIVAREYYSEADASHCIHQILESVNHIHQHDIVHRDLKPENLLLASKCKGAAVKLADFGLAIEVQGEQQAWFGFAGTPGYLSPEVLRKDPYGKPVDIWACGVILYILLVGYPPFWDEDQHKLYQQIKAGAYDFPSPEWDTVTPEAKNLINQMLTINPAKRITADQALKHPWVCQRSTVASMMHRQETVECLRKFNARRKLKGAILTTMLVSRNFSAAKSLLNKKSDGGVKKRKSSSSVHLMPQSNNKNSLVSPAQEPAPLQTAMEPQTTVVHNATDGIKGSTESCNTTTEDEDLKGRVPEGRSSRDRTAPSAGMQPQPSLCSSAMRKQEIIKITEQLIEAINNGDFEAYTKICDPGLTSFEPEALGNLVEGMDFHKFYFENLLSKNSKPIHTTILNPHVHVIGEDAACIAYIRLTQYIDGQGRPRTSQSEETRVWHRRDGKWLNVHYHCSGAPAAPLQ

Take `CNC(=O)Nc1ccc(-c2nc(N3CC4CCC(C3)O4)c3cnn(C4CCC5(CC4)OCCO5)c3n2)cc1`: the % of inhibition in experiment [1] amounted to 5%.

In experiment [2], `CN(C)CCOc1ccc(-c2nc(-c3ccncc3)c(-c3ccc4c(c3)CC/C4=N\O)[nH]2)cc1` gave a % of control of 98%.

Turning to `N#Cc1cccc(-c2c[nH]c3ncnc(N4CCOCC4)c23)c1`, the % of inhibition in experiment [3] is -17%.

Compound `CCN(CC)CCCCNc1ncc2cc(-c3cc(OC)cc(OC)c3)c(NC(=O)NC(C)(C)C)nc2n1` showed a % of control in experiment [4] of 100%.

In the case of `Cc1cc(F)c(C(=O)Nc2cccc(-c3nncn3C(C)C)n2)cc1-n1cnc(C2CC2)c1`, the % of control in experiment [5] is 86%.

As for `CC(=O)c1cc(-c2ccccc2OCC2CC2)c2ncccn12`, in experiment [6], the % of control was 94%.

Take `CCC(=O)N1CCN(c2ccc(-n3c(=O)ccc4cnc5ccc(-c6cnc7ccccc7c6)cc5c43)cc2C(F)(F)F)CC1`: the % of control in experiment [7] is 79%.
